The text below walks through data of ChEMBL document CHEMBL5360622, “Leucettinibs, a Class of DYRK/CLK Kinase Inhibitors Inspired by the Marine Sponge Natural Product Leucettamine B” (J Med Chem, 2023).

Each structure is given as a SMILES string.

In experiment [1] the target is Cyclin-dependent kinase 5/CDK5 activator 1 (Homo sapiens, UniProt Q00535). It is filed as cell-based, Sf9.
Experiment [2] addresses Dual specificity protein kinase CLK4 (Homo sapiens, UniProt Q9HAZ1).
Experiment [3] addresses T1, Dual specificity tyrosine-phosphorylation-regulated kinase 4 (Homo sapiens, UniProt Q9NR20).
T1 sequence (Q9NR20 whole entry): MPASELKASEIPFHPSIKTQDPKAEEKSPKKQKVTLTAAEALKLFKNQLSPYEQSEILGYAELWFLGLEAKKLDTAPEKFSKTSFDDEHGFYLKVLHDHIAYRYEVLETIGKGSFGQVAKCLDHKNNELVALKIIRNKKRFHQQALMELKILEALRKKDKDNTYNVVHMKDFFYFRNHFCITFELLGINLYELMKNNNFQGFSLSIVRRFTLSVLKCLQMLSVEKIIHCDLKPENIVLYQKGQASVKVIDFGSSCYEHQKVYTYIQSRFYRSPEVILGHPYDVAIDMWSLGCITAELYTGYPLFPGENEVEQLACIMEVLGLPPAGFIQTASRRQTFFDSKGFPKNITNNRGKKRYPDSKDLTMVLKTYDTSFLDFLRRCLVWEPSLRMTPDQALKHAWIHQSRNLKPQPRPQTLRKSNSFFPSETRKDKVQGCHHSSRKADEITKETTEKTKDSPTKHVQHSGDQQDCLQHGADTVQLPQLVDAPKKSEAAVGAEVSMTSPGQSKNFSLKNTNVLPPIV

The target of experiment [4] is Dual specificity protein kinase CLK1 (Homo sapiens, UniProt P49759). It is filed as cell-based, Sf9.
For experiment [5], the target named is Dual specificity protein kinase CLK3 (Homo sapiens, UniProt P49761). It is filed as cell-based, Sf9.
The target of experiment [6] is Glycogen synthase kinase-3 beta (Homo sapiens, UniProt P49841). It is filed as cell-based, Sf9.
The target of experiment [7] is T2, Dual specificity tyrosine-phosphorylation-regulated kinase 2 (Homo sapiens, UniProt Q92630).
T2 sequence (Q92630 whole entry): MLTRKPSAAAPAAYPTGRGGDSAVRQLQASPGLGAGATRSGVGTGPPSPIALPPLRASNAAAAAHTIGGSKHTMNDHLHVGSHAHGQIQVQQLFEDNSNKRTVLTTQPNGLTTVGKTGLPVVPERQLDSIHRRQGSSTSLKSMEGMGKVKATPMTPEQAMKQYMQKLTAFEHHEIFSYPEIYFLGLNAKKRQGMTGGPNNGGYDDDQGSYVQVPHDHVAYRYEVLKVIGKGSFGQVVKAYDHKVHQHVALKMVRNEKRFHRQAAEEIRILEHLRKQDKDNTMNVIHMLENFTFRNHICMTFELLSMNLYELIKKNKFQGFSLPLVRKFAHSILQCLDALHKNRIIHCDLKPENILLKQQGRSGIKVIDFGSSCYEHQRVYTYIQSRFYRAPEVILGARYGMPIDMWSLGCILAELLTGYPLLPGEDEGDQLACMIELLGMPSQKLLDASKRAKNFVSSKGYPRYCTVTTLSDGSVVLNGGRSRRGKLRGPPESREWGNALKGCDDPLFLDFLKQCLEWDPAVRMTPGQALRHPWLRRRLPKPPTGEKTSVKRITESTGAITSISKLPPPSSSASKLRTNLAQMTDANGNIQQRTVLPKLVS

The target of experiment [8] is T3, Dual specificity tyrosine-phosphorylation-regulated kinase 3 (Homo sapiens, UniProt O43781).
T3 sequence (O43781 whole entry): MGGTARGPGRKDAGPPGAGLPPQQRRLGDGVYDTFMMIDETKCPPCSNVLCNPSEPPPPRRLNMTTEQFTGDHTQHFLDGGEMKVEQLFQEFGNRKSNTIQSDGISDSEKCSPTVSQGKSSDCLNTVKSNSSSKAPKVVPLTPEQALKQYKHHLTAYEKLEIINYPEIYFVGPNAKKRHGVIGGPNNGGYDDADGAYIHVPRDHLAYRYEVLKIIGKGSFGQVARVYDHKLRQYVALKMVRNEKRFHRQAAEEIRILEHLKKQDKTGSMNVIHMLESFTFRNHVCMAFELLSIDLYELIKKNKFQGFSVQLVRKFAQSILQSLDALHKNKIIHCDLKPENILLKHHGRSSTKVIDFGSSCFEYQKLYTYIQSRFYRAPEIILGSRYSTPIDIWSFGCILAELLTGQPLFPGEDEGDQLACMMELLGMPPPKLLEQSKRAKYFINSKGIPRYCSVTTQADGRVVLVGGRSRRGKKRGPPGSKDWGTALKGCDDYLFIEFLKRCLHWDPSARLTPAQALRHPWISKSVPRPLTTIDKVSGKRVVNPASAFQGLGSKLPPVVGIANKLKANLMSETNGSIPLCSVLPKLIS

Experiment [9] addresses Casein kinase I isoform epsilon (Homo sapiens, UniProt P49674).
Experiment [10] has as its target Dual specificity protein kinase CLK2 (Homo sapiens, UniProt P49760).

Chain of Dual specificity protein kinase CLK1 (P49759 whole entry): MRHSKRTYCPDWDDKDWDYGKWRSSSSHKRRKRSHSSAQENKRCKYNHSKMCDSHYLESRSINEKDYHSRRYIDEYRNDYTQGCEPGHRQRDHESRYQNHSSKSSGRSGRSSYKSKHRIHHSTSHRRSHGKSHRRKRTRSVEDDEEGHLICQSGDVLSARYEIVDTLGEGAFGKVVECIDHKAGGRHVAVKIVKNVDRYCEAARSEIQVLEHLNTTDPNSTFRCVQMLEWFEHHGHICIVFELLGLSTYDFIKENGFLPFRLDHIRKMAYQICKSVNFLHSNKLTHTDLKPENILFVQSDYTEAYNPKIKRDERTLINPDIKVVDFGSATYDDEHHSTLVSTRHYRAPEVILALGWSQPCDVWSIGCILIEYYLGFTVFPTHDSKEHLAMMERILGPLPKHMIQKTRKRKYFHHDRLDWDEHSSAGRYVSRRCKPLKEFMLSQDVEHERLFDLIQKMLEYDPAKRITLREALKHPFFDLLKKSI
Chain of Glycogen synthase kinase-3 beta (P49841 whole entry): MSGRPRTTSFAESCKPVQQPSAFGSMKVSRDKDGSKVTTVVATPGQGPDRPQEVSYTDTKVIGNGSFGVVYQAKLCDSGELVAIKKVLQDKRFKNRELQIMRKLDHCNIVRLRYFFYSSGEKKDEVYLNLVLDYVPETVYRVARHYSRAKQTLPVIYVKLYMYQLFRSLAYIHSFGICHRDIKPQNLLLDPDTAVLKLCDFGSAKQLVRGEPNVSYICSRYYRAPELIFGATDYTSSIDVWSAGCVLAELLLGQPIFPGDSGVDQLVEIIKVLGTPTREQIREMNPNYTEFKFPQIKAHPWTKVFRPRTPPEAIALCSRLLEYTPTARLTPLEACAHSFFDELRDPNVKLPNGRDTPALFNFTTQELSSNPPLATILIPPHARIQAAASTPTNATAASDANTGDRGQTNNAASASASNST
Chain of Casein kinase I isoform epsilon (P49674 whole entry, canonical isoform): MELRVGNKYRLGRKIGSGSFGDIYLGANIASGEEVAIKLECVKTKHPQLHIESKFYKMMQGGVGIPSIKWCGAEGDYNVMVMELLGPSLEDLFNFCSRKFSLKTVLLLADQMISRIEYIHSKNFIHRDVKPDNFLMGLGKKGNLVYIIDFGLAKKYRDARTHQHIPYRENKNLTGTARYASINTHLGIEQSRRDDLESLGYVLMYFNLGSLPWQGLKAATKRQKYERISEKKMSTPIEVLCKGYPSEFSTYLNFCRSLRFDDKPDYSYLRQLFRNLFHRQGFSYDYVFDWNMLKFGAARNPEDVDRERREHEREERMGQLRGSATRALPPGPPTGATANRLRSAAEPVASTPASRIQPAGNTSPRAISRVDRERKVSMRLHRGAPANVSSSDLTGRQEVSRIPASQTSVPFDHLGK
Chain of Dual specificity protein kinase CLK4 (Q9HAZ1 whole entry): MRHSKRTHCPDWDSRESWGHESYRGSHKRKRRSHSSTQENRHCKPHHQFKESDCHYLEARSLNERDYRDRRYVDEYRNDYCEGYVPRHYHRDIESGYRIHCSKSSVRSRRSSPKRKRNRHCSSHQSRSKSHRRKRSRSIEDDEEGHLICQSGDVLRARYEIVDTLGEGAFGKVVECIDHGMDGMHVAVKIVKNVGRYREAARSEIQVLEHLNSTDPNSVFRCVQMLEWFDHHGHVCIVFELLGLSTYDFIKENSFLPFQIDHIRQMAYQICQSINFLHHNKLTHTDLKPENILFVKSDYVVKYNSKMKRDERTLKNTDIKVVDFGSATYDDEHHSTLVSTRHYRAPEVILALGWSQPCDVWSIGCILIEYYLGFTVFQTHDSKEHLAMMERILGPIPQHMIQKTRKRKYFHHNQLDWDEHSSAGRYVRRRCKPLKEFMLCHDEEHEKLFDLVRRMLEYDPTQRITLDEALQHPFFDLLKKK
Chain of Dual specificity protein kinase CLK2 (P49760 whole entry): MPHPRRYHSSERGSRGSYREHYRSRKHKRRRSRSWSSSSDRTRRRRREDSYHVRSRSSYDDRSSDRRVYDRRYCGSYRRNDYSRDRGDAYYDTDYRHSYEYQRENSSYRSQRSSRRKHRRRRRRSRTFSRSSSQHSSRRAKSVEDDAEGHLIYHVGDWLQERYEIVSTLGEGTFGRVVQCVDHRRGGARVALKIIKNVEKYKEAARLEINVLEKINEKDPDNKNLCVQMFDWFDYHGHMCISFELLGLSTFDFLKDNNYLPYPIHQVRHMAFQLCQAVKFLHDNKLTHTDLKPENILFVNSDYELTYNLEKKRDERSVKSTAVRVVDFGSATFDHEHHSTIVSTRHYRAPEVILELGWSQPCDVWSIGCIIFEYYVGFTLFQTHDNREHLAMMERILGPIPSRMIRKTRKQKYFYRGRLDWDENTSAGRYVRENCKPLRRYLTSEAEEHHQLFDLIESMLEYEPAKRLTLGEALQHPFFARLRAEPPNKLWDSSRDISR
Chain of Dual specificity protein kinase CLK3 (P49761 whole entry): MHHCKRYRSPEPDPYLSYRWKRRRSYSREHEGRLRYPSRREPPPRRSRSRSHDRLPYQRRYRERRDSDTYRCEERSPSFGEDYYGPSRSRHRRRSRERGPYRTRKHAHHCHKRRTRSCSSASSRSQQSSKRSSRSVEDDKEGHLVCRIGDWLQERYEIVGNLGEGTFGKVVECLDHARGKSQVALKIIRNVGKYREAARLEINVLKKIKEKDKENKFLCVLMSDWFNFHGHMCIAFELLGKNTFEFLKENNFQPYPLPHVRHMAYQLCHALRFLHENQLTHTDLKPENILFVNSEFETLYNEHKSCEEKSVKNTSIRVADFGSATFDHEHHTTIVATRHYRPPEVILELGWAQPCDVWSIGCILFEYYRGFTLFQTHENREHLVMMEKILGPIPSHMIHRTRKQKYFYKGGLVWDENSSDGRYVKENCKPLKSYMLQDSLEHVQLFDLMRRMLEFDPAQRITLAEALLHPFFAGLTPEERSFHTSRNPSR
Chain of Cyclin-dependent kinase 5/CDK5 activator 1 (Q00535 whole entry): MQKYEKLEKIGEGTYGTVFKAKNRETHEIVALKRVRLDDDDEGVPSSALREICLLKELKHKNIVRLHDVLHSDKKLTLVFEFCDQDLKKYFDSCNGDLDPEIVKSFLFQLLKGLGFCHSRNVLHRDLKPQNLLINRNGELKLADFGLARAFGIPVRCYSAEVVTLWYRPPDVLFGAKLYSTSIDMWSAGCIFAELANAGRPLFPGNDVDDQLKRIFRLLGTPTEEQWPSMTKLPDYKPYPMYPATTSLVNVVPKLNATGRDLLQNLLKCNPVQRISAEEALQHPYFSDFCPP
Chain of Cyclin-dependent kinase 5/CDK5 activator 1 (Q15078 whole entry, further chain): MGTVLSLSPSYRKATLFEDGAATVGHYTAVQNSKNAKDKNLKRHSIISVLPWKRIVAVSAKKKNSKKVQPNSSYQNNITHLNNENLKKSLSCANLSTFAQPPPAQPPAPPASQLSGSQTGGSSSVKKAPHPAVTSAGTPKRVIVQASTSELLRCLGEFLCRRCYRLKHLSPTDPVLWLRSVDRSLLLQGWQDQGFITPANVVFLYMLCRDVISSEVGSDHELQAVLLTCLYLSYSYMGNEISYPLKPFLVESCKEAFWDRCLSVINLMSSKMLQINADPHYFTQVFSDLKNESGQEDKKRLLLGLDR

Take `CC(C)C[C@H](COCc1ccccc1)NC1=N/C(=C\c2ccc3ncsc3c2)C(=O)N1`: the IC50 in experiment [1] was above 10000 nM; in experiment [2], 86 nM; in experiment [3], 2670 nM; in experiment [4] it was 220 nM; in experiment [5], 5700 nM; in experiment [6], 5190 nM. Further, the IC50 in experiment [7] was 946 nM; in experiment [8] it was 5430 nM; in experiment [9], above 10000 nM; in [10], 2230 nM.

With `CC(C)C[C@H](COC1CC1)NC1=N/C(=C\c2ccc3ncsc3c2)C(=O)N1`, the IC50 in experiment [1] was above 10000 nM; in experiment [2], 5 nM; in experiment [3] it was 1380 nM; in experiment [4], 17 nM; in experiment [5] it was 211 nM; in [6] it was 3600 nM. Moreover, the figures for the IC50 in experiment [7], in experiment [9] and in experiment [10] were 125 nM, above 10000 nM and 121 nM, respectively.

As for `O=C1NC(NC2CCCCCC2)=N/C1=C\c1ccc2c(c1)CCO2`, the IC50 was above 10000 nM in experiment [1]; 9 nM in experiment [2]; 4890 nM in experiment [3]; 24 nM in [4]; above 10000 nM in experiment [5]; above 10000 nM in experiment [6]. The IC50 in experiment [7] was above 10000 nM; in [8] it was 4170 nM; in experiment [9], above 10000 nM; in [10], 1460 nM.

In the case of `CN1CCN(c2ccc(NC3=N/C(=C\c4ccc5c(c4)OCO5)C(=O)N3)cc2)CC1`, the IC50 turned out to be 16 nM in [2]; 23 nM in experiment [4]; 800 nM in experiment [5]; 1200 nM in experiment [6]; 120 nM in experiment [8]; 35 nM in experiment [10].

Consider `CCOC[C@@H](CC(C)C)NC1=N/C(=C\c2ccc3ncsc3c2)C(=O)N1`, for which the IC50 was above 10000 nM in experiment [1]; 4 nM in experiment [2]; 987 nM in experiment [3]; 13 nM in [4]; 413 nM in [5]; 2680 nM in experiment [6]. Further, the IC50 in experiment [7] is 145 nM; in experiment [9], above 10000 nM; in experiment [10] it was 110 nM.

In the case of `Cn1ncc2cc(/C=C3\N=C(NC45CC6CC(CC(C6)C4)C5)NC3=O)ccc21`, the IC50 in experiment [1] is above 10000 nM; in [2] it was 125 nM; in [3], 1630 nM; in experiment [4], 142 nM; in experiment [5], 2220 nM; in [6], above 10000 nM. Further, the IC50 in experiment [7] was 363 nM; in experiment [8] it was 307 nM; in experiment [9], above 10000 nM; in experiment [10] it was 4000 nM.

Take `O=C1NC(NCc2ccccc2OC(F)(F)F)=N/C1=C\c1ccc2ncsc2c1`: the IC50 in experiment [1] was above 10000 nM; in [2] it was 37 nM; in [3] it was above 10000 nM; in experiment [4], 34 nM; in experiment [5] it was 2870 nM; in experiment [6], above 10000 nM. The results for the IC50 in [7], in [8] and in experiment [10] were above 10000 nM, above 10000 nM and 124 nM, respectively.

Regarding `O=C1NC(NC2CCCCCC2)=N/C1=C\c1ccc2nnsc2c1`, the IC50 was above 10000 nM in [1]; 172 nM in [2]; above 10000 nM in experiment [3]; 270 nM in experiment [4]; above 10000 nM in experiment [5]; above 10000 nM in [6]. The IC50 in [7] was above 10000 nM; in experiment [9] it was above 10000 nM; in experiment [10], 2830 nM.

Take `CN1CCN(c2cnc(NC3=N/C(=C\c4ccc5ncsc5c4)C(=O)N3)cn2)CC1`: the IC50 in [1] was above 10000 nM; in experiment [2], 29 nM; in experiment [3] it was 1130 nM; in experiment [4], 55 nM; in experiment [5], 2130 nM; in [6] it was 4120 nM. Besides, the figures for the IC50 in experiment [7], in [9] and in [10] were 798 nM, above 10000 nM and 121 nM, respectively.

Turning to `O=C1NC(NC2CCCCCC2)=N/C1=C\c1ccc2scnc2c1`, the IC50 in experiment [1] is above 10000 nM; in experiment [2], 8170 nM; in experiment [4], above 10000 nM; in [5] it was above 10000 nM; in experiment [6] it was above 10000 nM; in experiment [7] it was above 10000 nM. Also, the IC50 in experiment [8], in experiment [9] and in [10] was above 10000 nM each time.

For the molecule `C[C@@H](NC1=N/C(=C\c2ccc3ncsc3c2)C(=O)N1)C1CCCCC1`, the IC50 in experiment [1] is above 10000 nM; in [2], 36 nM; in experiment [3], 6000 nM; in experiment [4] it was 44 nM; in experiment [5], 3020 nM; in [6], above 10000 nM. Also, the IC50 in [7] was 3610 nM; in experiment [9], above 10000 nM; in experiment [10], 304 nM.

For `O=C1NC(NC2CCCCC2)=N/C1=C\c1ccc2nnsc2c1`, the IC50 in [1] is above 10000 nM; in experiment [2], 392 nM; in experiment [3], above 10000 nM; in [4], 852 nM; in experiment [5], 8820 nM; in [6], above 10000 nM. In addition, the IC50 in experiment [7] was above 10000 nM; in experiment [8], above 10000 nM; in experiment [10] it was 5580 nM.

`O=C1NC(NC2CCCCC2)=N/C1=C\c1ccc2ncsc2c1`: the IC50 in [1] was 6710 nM; in experiment [2] it was 12 nM; in experiment [3] it was 663 nM; in [4] it was 21 nM; in experiment [5], 787 nM; in experiment [6] it was 7060 nM. The values for the 50% inhibitory concentration (IC50) in experiment [7], in [8] and in experiment [9] were 627 nM, 482 nM and 9750 nM, respectively.

On to `O=C1NC(Nc2ccccc2)=N/C1=C\c1ccc2ncsc2c1`, for which the IC50 is above 10000 nM in experiment [1]; 5 nM in experiment [2]; 13 nM in experiment [4]; 698 nM in [5]; 2220 nM in experiment [6]; 710 nM in experiment [8]. Further, the IC50 in [9] is above 10000 nM; in [10], 113 nM.

As to `Cn1cc2cc(/C=C3\N=C(NC4CCCCCC4)NC3=O)ccc2n1`, the half-maximal inhibitory concentration (IC50) in experiment [1] was above 10000 nM; in experiment [2], 55 nM; in experiment [3], 3020 nM; in experiment [4], 67 nM; in experiment [5], 1410 nM; in experiment [6], above 10000 nM. Also, the IC50 in [7] was 1500 nM; in experiment [8] it was 1030 nM; in [9], above 10000 nM; in experiment [10] it was 2180 nM.

As to `O=C1NC(NC2CCCCC2)=N/C1=C\c1ccc2[nH]cnc2c1`, the IC50 in experiment [1] is above 10000 nM; in [2], 37 nM; in experiment [3] it was 1860 nM; in experiment [4], 883 nM; in [5] it was 1910 nM; in experiment [6] it was above 10000 nM. The IC50 in experiment [7] is 3280 nM; in [9], above 10000 nM; in experiment [10], 1370 nM.

The IC50 is the concentration at which inhibition is half-maximal.
